Measurements: EP1733758A1, “Methods for administration of a farnesyl dibenzodiazepinone” (Ecopia Biosciences Inc., priority 2005, dated 2006)
Several values for one entry are separate records, joined by “and”; a condition that tells them apart may be missing. Identical values can stand only once. Like-named read-outs stand apart in the source and are kept apart here.

Legend:
[1] = Pharmacokinetics and tissue distribution after bolus IV, IP, SC and PO administration in mice; assay type: in vivo, female Crl: CD1 mice
Description: The compound of formula I was dissolved in ethanol (5%), Polysorbate 80 (15%), PEG 400 (5%) and dextrose (5%) at a final concentration of 6 mg/ml (IV, IP and SC administration). For oral administration, the compound of Formula I was solubilized in Chremophor® EL/ Ethanol (50%:50%) at a final concentration of 6 mg/ml. Prior to dosing, animals (female Crl: CD1 mice; 6 weeks of age, 22-24g) were weighed, randomly selected and assigned to the different treatment groups. The compound of Formula I was administered by the bolus intravenous (IV), bolus subcutaneous (SC), bolus intraperitoneal (IP), or oral (PO) route to the assigned animals. The dosing volume of Formula I was 5 mL per kg body weight. Animals were anesthetized prior to bleeding with 5% isoflurane. Blood was collected into microtainer tubes containing the anticoagulant K2EDTA by cardiac puncture from each of 4 animals per bleeding timepoint (2min, 5 min, 15 min, 30 min, 1 h, 2h, 4h and 8h). Following collection, the samples were centrifuged and the plasma obtained from each sample was recovered and stored frozen (at approximately - 80°C) pending analysis. At the 5 min and 30 min time points, the following organs were harvested from each animal: brain, lungs, skeletal muscle, fat tissue, kidneys, spleen, thymus and liver. Tissues were frozen (at approximately -80°C) pending analysis. Samples were analysed by LC/MS/MS.
Plasma values of the compound of Formula I falling below the limit of quantitation (LOQ) were set to zero. […] The following pharmacokinetic parameters were calculated: area under the plasma concentration versus time curve from time zero to the last measurable concentration time point (AUCO-t), area under the plasma concentration versus time curve extrapolated to infinity (AUCinf), maximum observed plasma concentration (Cmax), time of maximum plasma concentration (tmax), apparent first-order terminal elimination rate constant (kel), apparent first-order terminal elimination half-life will be calculated as 0.693/kel (t1/2). The systemic clearance (CL) of the compound of Formula I after intravenous administration was calculated using Dose/AUCinf. Pharmacokinetic parameters were calculated using Kinetica™ 4.1.1 (InnaPhase Corporation, Philadelphia, PA).

U-87MG cell line = experiment: In vitro activity in the U-87MG cell line; assay type: cell-based; conditions: Homo sapiens
[2] = Pharmacokinetics of 14-day continuous intravenous infusion in monkeys; assay type: in vivo, Cynomolgus monkeys; conditions: for Css / mean steady-state plasma concentration / T½z: 14-day CIV; for Css: average between 30h and 14 days; for Css / T½z: mean; for mean steady-state plasma concentration: between 30 h and 14 days; for T½z: calculated at the end of treatment; for plasma concentration: CIV 30 mg/kg/day
Description: (§1) Cynomolgus monkeys received continuous IV infusion over 14 days of Formula I at 5 mg/kg/day, 15 mg/kg/day, or 30 mg/kg/day. The drug was infused intravenously (24 hours/day) into the femoral vein at a dose rate of 2 ml/kg/hour for 14 consecutive days. Blood samples were removed from each monkey on Days 1, 2, 6, 10, and 15 of the treatment period. Monkeys were bled by venipuncture and samples were collected into tubes containing K2EDTA. On Day 1, samples were collected at 2, 6, and 12 hours after initiation of treatment. Additional samples were collected at 30 hours after the start of infusion (Day 2). On Days 6 and 10, samples were collected at approximately 6 hours after the bag changes. At the end of the 14 days of infusion, on Day 15, samples were collected at 1 hour prior to cessation of dose administration, and at 5 min, 30 min, 1 h, 2 h, 4 h, 8 h, and 24 h following cessation of dose administration.

[3] = tested on: P388 murine leukemia cells; experiment: Murine P388 leukemia survival model; assay type: in vivo
Description: Formulation: The compound of Formula I is first dissolved in 1 volume of 90% propylene glycol (PG). This is followed by the addition of 2 volumes of 45% polyethylene glycol 400 (PEG 400). The volume ratio of PEG 400/PG/water is respectively 30:30:40. Compound is injected in a volume of 10 mL/kg.
DBA/2 female mice (6 weeks of age) were injected intraperitoneally (IP) with 1 x 10^6 P388 murine leukemia cells (day 0). Mice were randomized in 4 groups (10 mice per group) at Day 1 and treated with the following dose and schedule. Group 1: IV injection of vehicle (PEG/PG formulation) on D1 and D8, daily IP administration of vehicle from D2 to D7 and from D9 to D10 Group 2: IV injection of the compound of Formula I in PEG-PG formulation at 50 mg/kg on D1 followed by daily IP administration of the compound of Formula I in PEG-PG formulation at 10 mg/kg from D2 to D4 and from D6 to D12 Group 3: Daily IP administration of the compound of Formula I in PEG-PG formulation at 10 mg/kg from D1 to D4 and from D8 to D14
Mice body weights were recorded twice a week. Lethality and behaviour of animals were recorded every day. All vehicle control mice died between D8 to D10 from peritoneal carcinomatosis associated with ascites. Three (3) mice from group 2 died one day after treatment due to formulation toxicity. The remaining seven (7) died between days 8 and 12. Mice from group 3 died between days 8 and 12. The results are expressed as percent of mean survival time of treated animals over the mean survival time of the control group (treated vs control, T/C%) and as increase life span (mean survival time of treated animals minus that of control animals over the mean survival time of the control group; ILS%).

[4] = Toxicity of 14-day continuous intravenous infusion in monkeys; assay type: in vivo
Description: as §1

[5] = Grp 2: IV 50 mg/kg (D1), IP 10 mg/kg (D2-4 & D6-12)
[6] = Grp 3: IP 10 mg/kg (D1-4 & D8-14)

## CC(C)=CCC/C(C)=C/CC/C(C)=C/CN1C(=O)c2cccc(O)c2Nc2c(O)cc(O)cc21 [Formula I, 10-farnesyl-4,6,8-trihydroxy-dibenzodiazepin-11-one]
[1]; 30 mg/kg bolus IV, initial
  plasma concentration: 425000 nM
[1]; IP bolus, plasma
  peak concentration: 7.8 µM
  time peak concentration reached: 15 min
[1]; IV and IP bolus 30 mg/kg, 30 min
  tissue distribution: well distributed
[1]; SC bolus 30 mg/kg, 30 min
  tissue levels compared with IP: significantly lower
[1]; SC bolus, plasma
  peak concentration: 2.3 µM
  time peak concentration reached: 60 min
[1]; female, Crl: CD1, mouse, plasma, PO 30 mg/kg compared to IV bolus administration, read-out: orally bioavailable
  bioavailability: 5 to 8%
[1]; female, Crl:CD1, mouse, bolus IV 30 mg/kg, plasma, read-out: t1/2 α
  half-life: 4.7 min
[1]; female, Crl:CD1, mouse, plasma, 30 mg/kg bolus IV, by 8 hours, read-out: plasma concentration
  concentration at 8 h: ~100 nM
[1]; female, Crl:CD1, mouse, plasma, 30 mg/kg bolus IV, four hours after administration
  concentration at 4 h: 200 nM
[1]; female, Crl:CD1, mouse, plasma, 30 mg/kg bolus IV, within one hour
  concentration at 1 h: 1300 nM
[1]; female, Crl:CD1, mouse, plasma, 30 mg/kg, IP bolus, read-out: plasma concentration remained for up to 8 hours
  concentration at 8 h: ~950 nM
[1]; female, Crl:CD1, mouse, plasma, 30 mg/kg, SC bolus, read-out: plasma concentration remained for up to 8 hours
  concentration at 8 h: ~1800 nM
[1]; intraperitoneal and subcutaneous 30 mg/kg
  time plasma concentration is maintained at therapeutically relevant levels: over 8 hours
U-87MG cell line
  IC50: 10.9 µM
[2]; 15 mg/kg/day group versus 5 mg/kg/day group
  AUC increase between the groups: 3.4 fold
[2]; 30 mg/kg/day group versus 15 mg/kg/day group
  AUC higher than that of the middle dose group: 4.7 fold
[2]; 5 mg/kg/day
  Css: 358 ng/mL and 358 ^b ng/mL
  mean steady-state plasma concentration: ~0.8 µM
  T½z: 12 h
[2]; 15 mg/kg/day
  Css: 1,173 ng/mL
  mean steady-state plasma concentration: ~2.5 µM
  T½z: 8.3 h
[2]; 30 mg/kg/day
  Css: 6,283 ng/mL
  T½z: 8.1 h
[2]; Day 1
  plasma concentration: 2,814 ng/mL
[2]; Day 6
  plasma concentration: 4,354 ng/mL
[2]; Day 10
  plasma concentration: 6,855 ng/mL
[2]; day 15
  plasma concentration: 8,561 ng/mL
[3]; [5]
  % ILS: 33%
  %T/C: 133.3%
  Mean Survival Days ± SD: 11 ± 1.5 days
  Median survival: 12
[3]; [6]
  % ILS: 38.9%
  %T/C: 138.9%
  Mean Survival Days ± SD: 12.6 ± 4.9 days
  Median survival: 12.5
[3]; group 2 (10 mice), IV 50 mg/kg in PEG-PG formulation on D1
  mice died one day after treatment due to formulation toxicity: 3 mice
[4]
  compound associated toxicity: no severe compound associated toxicity was observed
  degenerative changes in any organs, including the infusion site: No degenerative changes
  effect on body weight, ocular condition, electrocardiographic activity and other parameters assessed: no effect
  histological observations, reflected clearance of the vehicle used: Diffuse vacuolization of hepatocytes and accumulation of foamy histiocytes (macrophages) in the spleen
  side effects (reversible): inappetance and a moderate degree of regenerative anemia
